Data reported in patent US20240391870A1 (Arcturus Therapeutics, Inc., priority 2023, published 2024).

Legend:
Mouse plasma stability = format: in vitro ADME, CD-1 mouse; conditions: 1 uM lipid
Procedure: Lipid stock solution was prepared by dissolution of the lipid in isopropanol at the concentration of 5 mg/mL. A requisite volume of the lipid-isopropanol solution was then diluted to 100 μM concentration at a total volume of 1.0 mL with in 50:50 (v/v) ethanol/water. Ten microliters of this 100 μM solution was spiked into 1.0 mL of mouse plasma (BioIVT, Cat. No.: MSE00PLNHUNN, CD-1 mouse, anticoagulant: sodium heparin, not filtered) that was pre-warmed to 37° C. and was stirred at 50 rpm with a magnetic stir bar. The starting concentration of lipids in plasma was thus 1 μM. At time points 0, 15, 30, 45, 60 and 120 min, 0.1 mL of the plasma was withdrawn from the reaction mixture and the protein was precipitated by adding 0.9 mL of ice-cold 4:1 (v/v) acetonitrile/methanol with 1 μg/mL of a selected internal standard lipid added. After filtration through a 0.45 micron 96-well filtering plate, the filtrates were analyzed by LC-MS (Thermo Fisher's Vanquish UHPLC—LTQ XL linear ion trap Mass Spectrometer); Waters XBridge BEH Shield RP18 2.5 micron (2.1×100 mm) column with its matching guard column. Mobile phase A was 0.1% formic acid in water, and mobile phase B was 0.1% formic acid in 1:1 (v/v) acetonitrile/methanol. Flow rate was 0.5 ml/min. Elution gradient was: Time 0-1 min: 10% B; 1-6 min: 10%-95% B; 6-8.5 min: 95% B; 8.5-9 min: 95%-10% B; 9-10 min: 10% B. Mass spectrometry was in positive scanning mode from 600-1100 m/z. The peak of the molecular ion of the lipids was integrated in the extracted ion chromatography (XIC) using Xcalibur software (Thermo Fisher). The relative peak area compared to T=0, after normalization by the peak area of the internal standard, was used as the percentage of the lipid remaining at each time point. T1/2 values were calculated using the first-order decay model.

[1] = In vivo biodegradability assay (lipid in liver); conditions: mouse liver, 48 h
factor VII = test: Factor VII knock down evaluation (LNP with FVII siRNA); format: in vivo, Balb/C mice; conditions: plasma FVII after 48 h vs saline control; for FVII KD % 0.01 mpk: 0.01 mpk i.v.; for FVII KD % 0.03 mpk: 0.03 mpk i.v.
Procedure: Lipid formulations comprising a FVII siRNA further described below were evaluated for their knockdown activity using the protocol of this example. In the FVII evaluation, seven to eight week-old, female Balb/C mice were purchased from Charles River Laboratories (Hollister, CA). The mice were held in a pathogen-free environment and all procedures involving the mice were performed in accordance with guidelines established by the Institutional Animal Care and Use Committee (IACUC). Lipid nanoparticles containing factor VII siRNA were administered intravenously at a dosing volume of 10 mL/kg and two dose levels (0.03 and 0.01 mg/kg). After 48 h, the mice were anesthetized with isoflurane and blood was collected retro-orbitally into Microtainer® tubes coated with 0.109 M sodium citrate buffer (BD Biosciences, San Diego, CA) and processed to plasma. Plasma specimens were tested for factor VII levels immediately or stored at −80° C. for later analysis. Measurement of FVII protein in plasma was determined using the colorimetric Biophen VII assay kit (Aniara Diagnostica, USA). Absorbance was measured at 405 nm and a calibration curve was generated using the serially diluted control plasma to determine levels of factor VII in plasma from treated animals, relative to the saline-treated control animals.

hEPO = hEPO mRNA expression evaluation (hEPO-LNPs); format: in vivo, Balb/c mice; conditions: serum hEPO after 6 hr; for EPO exprssn (ng/mL) 0.1 mpk: 0.1 mpk i.v.; for EPO exprssn (ng/mL) 0.03 mpk: 0.03 mpk i.v.
Procedure: Protocol for hEPO mRNA Expression Evaluation
Lipid formulations comprising a hEPO mRNA below were evaluated for their ability to express hEPO in vivo according to the protocol of this example. All animal experiments were conducted using institutionally-approved protocols (IACUC). In this protocol, female Balb/c mice at least 6-8 weeks of age were purchased from Charles River Laboratory. […] After 6 hr, blood was collected with serum separation tubes, and the serum was isolated by centrifugation. Serum hEPO levels were then measured using an ELISA assay (Human Erythropoietin Quantikine IVD ELISA Kit, R&D Systems, Minneapolis, MD).

[2] = Measured pKa in the indicated formulation; conditions: for pKa: EPO / pKa: FVII: Table 2; for pKa: EPO: measured in EPO formulation; for pKa: FVII: measured in FVII formulation
Procedure: Measured pKa values were determined based on the pH measured in the indicated formulation (i.e., EPO or FVII formulation).

| Percent remaining in mouse plasma after 2 h (Mouse plasma stability; Table 1, mouse plasma 37 C) | Percent remaining in mouse plasma after 2 h (Mouse plasma stability; Table 2, mouse plasma 37 C) | In vivo degradability (ng/tissue) at 48h 0.03 mpk ([1]; Table 1) | In vivo degradability (ng/tissue) at 48h 0.1 mpk ([1]; Table 1) | In vivo degradability (ng/tissue) at 48h 0.03 mpk ([1]; Table 2) | In vivo degradability (ng/tissue) at 48h 0.1 mpk ([1]; Table 2) | pKa ([2]; EPO formulation) | pKa ([2]; FVII formulation) | pKa: EPO [2] | pKa: FVII [2] | Compound | FVII KD % 0.01 mpk (factor VII; Table 1) | FVII KD % 0.03 mpk (factor VII; Table 1) | FVII KD % 0.01 mpk (factor VII; Table 2) | FVII KD % 0.03 mpk (factor VII; Table 2) | EPO exprssn (ng/mL) 0.1 mpk (hEPO; Table 1) | EPO exprssn (ng/mL) 0.1 mpk (hEPO; Table 2) | EPO exprssn (ng/mL) 0.03 mpk (hEPO; Table 1) | EPO exprssn (ng/mL) 0.03 mpk (hEPO; Table 2) |
| --- | --- | --- | --- | --- | --- | --- | --- | --- | --- | --- | --- | --- | --- | --- | --- | --- | --- | --- |
| 100% | 100% | <340 ng/tissue | 639 ng/tissue | <340 ng/tissue | 639 ng/tissue | 6.44 | 6.49 | 6.44 | 6.49 | CCCCCCC(C)C(=O)OCC(COC(=O)C(C)CCCCCC)OC(=O)CCCN(CCCC(=O)OC(COC(=O)C(C)CCCCCC)COC(=O)C(C)CCCCCC)C(=O)SCCCN(C)C (stereo not shown) [LIPID 18, ((4,4′-((((3-(Dimethylamino)propyl)thio)carbonyl)azanediyl)bis(butanoyl))bis(oxy))bis(propane-2,1,3-triyl)tetrakis(2-methyloctanoate)] | 60% | 88% | 60% | 88% | 1081 ng/mL | 1081 ng/mL | – | – |
| 57% | 57% | BLOQ | BLOQ | BLOQ | BLOQ | 6.46 | 6.61 | 6.46 | 6.61 | CN(C)CCCSC(=O)N(CCCCCC(=O)OC(COC(=O)CCC1CCCCC1)COC(=O)CCC1CCCCC1)CCCCCC(=O)OC(COC(=O)CCC1CCCCC1)COC(=O)CCC1CCCCC1 [LIPID 12, ((6,6′-((((3-(Dimethylamino)propyl)thio)carbonyl)azanediyl)bis(hexanoyl))bis(oxy))bis(propane-2,1,3-triyl)tetrakis(3-cyclohexylpropanoate)] | 91% | 69% | 91% | 69% | 768 ng/mL | 768 ng/mL | 286 ng/mL | 286 ng/mL |
| 36% | 36% | BLOQ | BLOQ | BLOQ | BLOQ | 6.46 | 6.67 | 6.46 | 6.67 | CN(C)CCCSC(=O)N(CCCC(=O)OC(COC(=O)CCC1CCCCC1)COC(=O)CCC1CCCCC1)CCCC(=O)OC(COC(=O)CCC1CCCCC1)COC(=O)CCC1CCCCC1 [LIPID 10, ((4,4′-((((3-(Dimethylamino)propyl)thio)carbonyl)azanediyl)bis(butanoyl))bis(oxy))bis(propane-2,1,3-triyl)tetrakis(3-cyclohexylpropanoate)] | 92% | 83% | 92% | 83% | 1179 ng/mL | 1179 ng/mL | 387 ng/mL | 387 ng/mL |
